Calls of active or inactive are those of the source. The rule behind the calls is not given here. Peptide text beside a SMILES is read from it. * marks the point of attachment. Isovaleryl = CC(C)CC(=O)*; Propionyl = CCC(=O)*; Bz = O=C(c1ccccc1)*
Key:
[1] = biological target: Nociceptin receptor (Mus musculus) (UniProt P35377); experiment: Agonist activity at ORL1[…] receptor in ICR mouse vas deferens assessed as inhibition of electrically-stimulated muscle contraction at 10 uM; format: functional, tissue-based; set-up: scale not given: the % may be the effect or the level left
Chain of Nociceptin receptor (Mus musculus) (P35377 whole entry, the tested form may be a part): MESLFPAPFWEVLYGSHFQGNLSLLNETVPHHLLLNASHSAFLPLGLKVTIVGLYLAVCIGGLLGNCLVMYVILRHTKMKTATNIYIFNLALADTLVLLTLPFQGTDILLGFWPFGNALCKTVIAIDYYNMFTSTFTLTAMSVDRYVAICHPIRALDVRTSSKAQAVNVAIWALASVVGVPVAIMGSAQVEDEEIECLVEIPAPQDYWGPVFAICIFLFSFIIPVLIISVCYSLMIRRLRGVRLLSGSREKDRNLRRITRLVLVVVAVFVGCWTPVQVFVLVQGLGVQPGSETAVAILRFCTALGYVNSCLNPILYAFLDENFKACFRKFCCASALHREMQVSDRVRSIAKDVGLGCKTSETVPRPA

[2] = biological target: T1, Nociceptin receptor (Homo sapiens, UniProt P41146); experiment: Activity at human ORL1-Galpha fusion receptor in COS7 cells assessed as stimulation of [35S]GTP-gamma-S binding; format: functional, cell-based, COS-7
T1 sequence (P41146 whole entry, the tested form may be a part): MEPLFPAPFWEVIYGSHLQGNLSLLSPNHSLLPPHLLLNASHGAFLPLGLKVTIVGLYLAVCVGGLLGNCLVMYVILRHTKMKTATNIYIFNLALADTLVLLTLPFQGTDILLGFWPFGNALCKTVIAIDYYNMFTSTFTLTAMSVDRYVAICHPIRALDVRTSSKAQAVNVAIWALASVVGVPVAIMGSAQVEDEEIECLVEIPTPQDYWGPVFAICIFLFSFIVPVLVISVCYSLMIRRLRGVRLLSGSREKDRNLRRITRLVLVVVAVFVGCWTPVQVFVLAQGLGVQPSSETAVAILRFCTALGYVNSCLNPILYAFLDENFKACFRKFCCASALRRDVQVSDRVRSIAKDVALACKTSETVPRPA

[3] = biological target: T1, Nociceptin receptor; experiment: Displacement of [3H]nociceptin from human ORL1-Galpha fusion receptor in COS7 cells; format: cell-based, COS-7
[4] = biological target: Nociceptin receptor (Mus musculus) (UniProt P35377); experiment: Antagonist activity at ORL1[…] receptor in ICR mouse vas deferens assessed as inhibition of electrically-stimulated muscle contraction at 10 uM; format: functional, tissue-based; set-up: scale not given: the % may be the effect or the level left
[5] = biological target: Nociceptin receptor (Mus musculus) (UniProt P35377); experiment: Antagonist activity at ORL1[…] receptor in ICR mouse vas deferens assessed as inhibition of electrically-stimulated muscle contraction; format: functional, tissue-based

| SMILES | EC50 [2] | IC50 [3] | further results |
| --- | --- | --- | --- |
| CC[C@H](C)[C@H](NC(=O)[C@H](CCCN=C(N)N)NC(=O)[C@H](Cc1ccc(O)cc1)NC(=O)[C@H](Cc1ccc(O)cc1)NC(=O)[C@H](CCCN=C(N)N)NC(C)=O)C(=O)N[C@@H](CCCCN)C(N)=O |  |  | Activity [1]: 40% |
| CC[C@H](C)[C@H](NC(=O)[C@H](CCCNC(=N)N)NC(=O)[C@H](Cc1ccc(O)cc1)NC(=O)[C@H](Cc1ccc(O)cc1)NC(=O)[C@H](CCCNC(=N)N)NC(=O)C(C)C)C(=O)N[C@@H](CCCCN)C(N)=O | 44.5 nM | 2.81 nM |  |
| CC[C@H](C)[C@H](NC(=O)[C@H](CCCN=C(N)N)NC(=O)[C@H](Cc1ccc(O)cc1)NC(=O)[C@H](Cc1ccc(O)cc1)NC(=O)[C@H](CCCN=C(N)N)NC(=O)C(C)(C)CC)C(=O)N[C@@H](CCCCN)C(N)=O | 17.7 nM | 45.5 nM |  |
| CCC(=O)N[C@@H](CCCNC(=N)N)C(=O)N[C@@H](Cc1ccccc1)C(=O)N[C@@H](Cc1ccc(O)cc1)C(=O)N[C@@H](CCCNC(=N)N)C(=O)N[C@H](C(=O)N[C@@H](CCCCN)C(N)=O)[C@@H](C)CC (Propionyl-RFYRIK-NH2) |  |  | Activity [4]: 90% |
| CC[C@H](C)[C@H](NC(=O)[C@H](CCCNC(=N)N)NC(=O)[C@H](Cc1ccc(O)cc1)NC(=O)[C@H](Cc1ccccc1)NC(=O)[C@H](CCCNC(=N)N)NC(=O)CC(C)C)C(=O)N[C@@H](CCCCN)C(N)=O (Isovaleryl-RFYRIK-NH2) |  |  | Activity [5]: Dose-dependent effect |
| CCC(=O)N[C@@H](CCCNC(=N)N)C(=O)N[C@@H](Cc1ccc(O)cc1)C(=O)N[C@@H](Cc1ccc(O)cc1)C(=O)N[C@@H](CCCNC(=N)N)C(=O)N[C@H](C(=O)N[C@@H](CCCCN)C(N)=O)[C@@H](C)CC | 27.6 nM | 1.7 nM |  |
| CC[C@H](C)[C@H](NC(=O)[C@H](CCCNC(=N)N)NC(=O)[C@H](Cc1ccc(O)cc1)NC(=O)[C@H](Cc1ccc(O)cc1)NC(=O)[C@H](CCCNC(=N)N)NC(=O)CC(C)C)C(=O)N[C@@H](CCCCN)C(N)=O |  | 7.42 nM |  |
| CC[C@H](C)[C@H](NC(=O)[C@H](CCCN=C(N)N)NC(=O)[C@H](Cc1ccc(O)cc1)NC(=O)[C@H](Cc1ccc(O)cc1)NC(=O)[C@H](CCCN=C(N)N)NC(=O)CC(C)(C)C)C(=O)N[C@@H](CCCCN)C(N)=O | 46.5 nM | 16.9 nM |  |
| CC[C@H](C)[C@H](NC(=O)[C@H](CCCN=C(N)N)NC(=O)[C@H](Cc1ccc(O)cc1)NC(=O)[C@H](Cc1ccc(O)cc1)NC(=O)[C@H](CCCN=C(N)N)NC(=O)C12CC3CC(CC(C3)C1)C2)C(=O)N[C@@H](CCCCN)C(N)=O | 19.2 nM | 3.42 nM |  |
| CCCC(=O)N[C@@H](CCCNC(=N)N)C(=O)N[C@@H](Cc1ccc(O)cc1)C(=O)N[C@@H](Cc1ccc(O)cc1)C(=O)N[C@@H](CCCNC(=N)N)C(=O)N[C@H](C(=O)N[C@@H](CCCCN)C(N)=O)[C@@H](C)CC | 32.4 nM | 1.86 nM |  |
| CC(C)C[C@H](NC(=O)[C@H](CCCCN)NC(=O)[C@H](CCCNC(=N)N)NC(=O)[C@H](C)NC(=O)[C@H](CO)NC(=O)[C@H](CCCCN)NC(=O)[C@H](CCCNC(=N)N)NC(=O)[C@H](C)NC(=O)CNC(=O)[C@@H](NC(=O)[C@H](Cc1ccccc1)NC(=O)CNC(=O)CNC(=O)[C@@H](N)Cc1ccccc1)[C@@H](C)O)C(=O)N[C@@H](C)C(=O)N[C@@H](CC(N)=O)C(=O)N[C@@H](CCC(N)=O)C(=O)O |  |  | ED50 [5]: 19.3 nM |
| CCC(CC)C(=O)N[C@@H](CCCN=C(N)N)C(=O)N[C@@H](Cc1ccc(O)cc1)C(=O)N[C@@H](Cc1ccc(O)cc1)C(=O)N[C@@H](CCCN=C(N)N)C(=O)N[C@H](C(=O)N[C@@H](CCCCN)C(N)=O)[C@@H](C)CC |  | 92.6 nM |  |
| CCCC(C)C(=O)N[C@@H](CCCNC(=N)N)C(=O)N[C@@H](Cc1ccc(O)cc1)C(=O)N[C@@H](Cc1ccc(O)cc1)C(=O)N[C@@H](CCCNC(=N)N)C(=O)N[C@H](C(=O)N[C@@H](CCCCN)C(N)=O)[C@@H](C)CC (stereo partly drawn) | 23.8 nM | 47.3 nM |  |
| CCCCC(=O)N[C@@H](CCCN=C(N)N)C(=O)N[C@@H](Cc1ccc(O)cc1)C(=O)N[C@@H](Cc1ccc(O)cc1)C(=O)N[C@@H](CCCN=C(N)N)C(=O)N[C@H](C(=O)N[C@@H](CCCCN)C(N)=O)[C@@H](C)CC |  | 5.67 nM |  |
| CC[C@H](C)[C@H](NC(=O)[C@H](CCCN=C(N)N)NC(=O)[C@H](Cc1ccc(O)cc1)NC(=O)[C@H](Cc1ccc(O)cc1)NC(=O)[C@H](CCCN=C(N)N)NC=O)C(=O)N[C@@H](CCCCN)C(N)=O | 23.3 nM | 0.66 nM |  |
| CCCCCC(=O)N[C@@H](CCCNC(=N)N)C(=O)N[C@@H](Cc1ccc(O)cc1)C(=O)N[C@@H](Cc1ccc(O)cc1)C(=O)N[C@@H](CCCNC(=N)N)C(=O)N[C@H](C(=O)N[C@@H](CCCCN)C(N)=O)[C@@H](C)CC |  | 21.7 nM |  |
| CCC(C)C(=O)N[C@@H](CCCNC(=N)N)C(=O)N[C@@H](Cc1ccc(O)cc1)C(=O)N[C@@H](Cc1ccc(O)cc1)C(=O)N[C@@H](CCCNC(=N)N)C(=O)N[C@H](C(=O)N[C@@H](CCCCN)C(N)=O)[C@@H](C)CC (stereo partly drawn) | 52.7 nM | 21.3 nM |  |
| CC[C@H](C)[C@H](NC(=O)[C@H](CCCNC(=N)N)NC(=O)[C@H](Cc1ccc(O)cc1)NC(=O)[C@H](Cc1ccccc1)NC(=O)[C@@H](N)CCCNC(=N)N)C(=O)N[C@@H](CCCCN)C(N)=O |  |  | Activity [5]: inactive |
| CC[C@H](C)[C@H](NC(=O)[C@H](CCCNC(=N)N)NC(=O)[C@H](Cc1ccc(O)cc1)NC(=O)[C@H](Cc1ccc(O)cc1)NC(=O)[C@H](CCCNC(=N)N)NC(=O)C(C)(C)C)C(=O)N[C@@H](CCCCN)C(N)=O | 97.9 nM | 14.9 nM |  |
| CC[C@H](C)[C@H](NC(=O)[C@H](CCCNC(=N)N)NC(=O)[C@H](Cc1ccc(O)cc1)NC(=O)[C@H](Cc1ccccc1)NC(=O)[C@H](CCCNC(=N)N)NC(=O)c1ccccc1)C(=O)N[C@@H](CCCCN)C(N)=O (Bz-RFYRIK-NH2) |  |  | Activity [4]: 90% |
| CC[C@H](C)[C@H](NC(=O)[C@H](CCCNC(=N)N)NC(=O)[C@H](Cc1ccc(O)cc1)NC(=O)[C@H](Cc1ccc(O)cc1)NC(=O)[C@H](CCCNC(=N)N)NC(=O)c1ccccc1)C(=O)N[C@@H](CCCCN)C(N)=O | 18.3 nM | 14.7 nM |  |
| CC[C@H](C)[C@H](NC(=O)[C@H](CCCNC(=N)N)NC(=O)[C@H](Cc1ccc(O)cc1)NC(=O)[C@H](Cc1ccc(O)cc1)NC(=O)[C@@H](N)CCCNC(=N)N)C(=O)N[C@@H](CCCCN)C(N)=O |  | 218 nM |  |

From ChEMBL document CHEMBL1142261 (Bioorg Med Chem, 2008)
